Measurements from US11578056B2, “Solid forms comprising (S)-2-(2,6-dioxopiperidin-3-yl)-4-((2-fluoro-4-((3-morpholinoazetidin-1-yl)methyl)benzyl)amino)isoindoline-1,3-dione and salts thereof, and compositions comprising and methods of using the same” (Celgene Corporation, priority 2019, dated 2023).

Experiments:
Type in all cases: physicochemical
[1] = Dynamic vapor sorption (DVS) hygroscopicity
Protocol: Dynamic vapor sorption (DVS) was measured using DVS advantage (Surface Measurement Systems Ltd). The samples were tested under isotherm (25° C.) at a targeted RH of 0 to 95% full cycle in step mode. For an isotherm test, the chamber temperature is maintained by a water bath at constant 25.0±1.0° C. The relative humidity in the sample chamber is generated by combining different flows of wet and dry nitrogen with variable flow rates. The analysis was performed in 10% RH increments. Sampling rate is 1 sec save data rate is 20 sec. The dm/dt (%) value was set at 0.001 with a dm/dt window of 5 min., a minimum stability duration time of 10 min, and a maximum stage time of 180 min. The sample's equilibrium weight corresponding to each RH was recorded. A sorption isotherm is obtained by plotting equilibrium moisture content versus RH.

[2] = Solid state stability of free base and salt forms under stress storage conditions;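 for Physical stability: Physical stability judged by XRPD check of crystalline form at end of study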
Protocol: The solid samples were analyzed for both chemical and chiral stability.

[3] = Estimated solubility of free base and salt forms in solvents (aliquot addition, visual)
Protocol: The experiments were carried out by adding the test solvent in aliquots to weighed portions of solid. Whether dissolution had occurred was judged by visual inspection after addition of each solvent aliquot. Solubility numbers were calculated by dividing the total amount of solvent used to dissolve the sample by the weight of the sample. […] The solubility number is expressed as “greater than or equal to” if dissolution occurred on addition of the first solvent aliquot.

O=C1CC[C@H](N2C(=O)c3cccc(NCc4ccc(CN5CC(N6CCOCC6)C5)cc4F)c3C2=O)C(=O)N1 [Compound 1 amorphous free base]
hygroscopicity (DVS) ([1]; below 75% RH): relatively high hygroscopicity
sorption/desorption reversibility (DVS) ([1]; during two full cycles): almost reversible
moisture picked up (DVS) ([1]; from dry up to 90% RH): ~6.0 % wt

Cl.O=C1CC[C@H](N2C(=O)c3cccc(NCc4ccc(CN5CC(N6CCOCC6)C5)cc4F)c3C2=O)C(=O)N1 [HC1 salt]
Chemical (%) ([2]; 40° C.): 99.13%
Chiral (%) ([2]; 40° C.): 99.29%
Physical stability ([2]; 40° C.): Stable
Chemical (%) ([2]; 40° C./80% RH): 99.56%
Chiral (%) ([2]; 40° C./80% RH): 99.22%
Physical stability ([2]; 40° C./80% RH): Stable
Chemical (%) ([2]; 60° C.): 99.35%
Chiral (%) ([2]; 60° C.): 99.02%
Physical stability ([2]; 60° C.): Stable
Chemical (%) ([2]; 60° C./75% RH): 99.56%
Chiral (%) ([2]; 60° C./75% RH): 98.70%
Physical stability ([2]; 60° C./75% RH): Stable
Chemical (%) ([2]; 70° C.): 99.32%
Chiral (%) ([2]; 70° C.): 99.13%
Physical stability ([2]; 70° C.): Stable
Chemical (%) ([2]; 70° C./80% RH): 99.43%
Chiral (%) ([2]; 70° C./80% RH): 98.91%
Physical stability ([2]; 70° C./80% RH): Stable
Chemical (%) ([2]; Ambient): 99.08%
Chiral (%) ([2]; Ambient): 99.26%

Cl.Cl.O=C1CC[C@H](N2C(=O)c3cccc(NCc4ccc(CN5CC(N6CCOCC6)C5)cc4F)c3C2=O)C(=O)N1
hygroscopicity (DVS) ([1]; below 90% RH): highly hygroscopic
moisture gain (DVS) ([1]; from 80% RH to 90% RH): ~6.7%
water content released during desorption (DVS) ([1]; from 90 to 80% RH): ~7.0%
moisture picked up (DVS) ([1]; from dry up to 80% RH): ~8.0 % wt

Fumarate
Chemical (%) ([2]; 40° C.): 98.64%
Chiral (%) ([2]; 40° C.): 95.39%
Physical stability ([2]; 40° C.): Stable
Chemical (%) ([2]; 40° C./80% RH): 98.69%
Chiral (%) ([2]; 40° C./80% RH): 94.55%
Physical stability ([2]; 40° C./80% RH): Stable
Chemical (%) ([2]; 60° C.): 97.43%
Chiral (%) ([2]; 60° C.): 95.54%
Physical stability ([2]; 60° C.): Stable
Chemical (%) ([2]; 60° C./75% RH): 98.19%
Chiral (%) ([2]; 60° C./75% RH): 93.14%
Physical stability ([2]; 60° C./75% RH): Stable
Chemical (%) ([2]; 70° C.): 95.94%
Chiral (%) ([2]; 70° C.): 95.11%
Physical stability ([2]; 70° C.): Stable
Chemical (%) ([2]; 70° C./80% RH): 93.79%
Chiral (%) ([2]; 70° C./80% RH): 91.52%
Physical stability ([2]; 70° C./80% RH): Stable
Chemical (%) ([2]; Ambient): 98.77%
Chiral (%) ([2]; Ambient): 95.82%
Solubility ([3]; 2-methyl tetrahydrofuran): <1000 µg/mL
Solubility ([3]; 2-propanol): <1000 µg/mL
Solubility ([3]; 95:5 2-PrOH/water): 1000 µg/mL
Solubility ([3]; 95:5 ACN/water): 2000 µg/mL
Solubility ([3]; 95:5 THF/water): 8000 µg/mL
Solubility ([3]; 95:5 acetone/water): 2000 µg/mL
Solubility ([3]; N-methyl pyrrolidone): 17000 µg/mL
Solubility ([3]; acetone): <1000 µg/mL
Solubility ([3]; acetonitrile): <1000 µg/mL
Solubility ([3]; anisole): <1000 µg/mL
Solubility ([3]; dichloromethane): <1000 µg/mL
Solubility ([3]; dimethylacetamide): 23000 µg/mL
Solubility ([3]; dimethylsulfoxide): 36000 µg/mL
Solubility ([3]; ethanol): <1000 µg/mL
Solubility ([3]; ethyl acetate): <1000 µg/mL
Solubility ([3]; ethyl formate): <1000 µg/mL
Solubility ([3]; isopropyl acetate): <1000 µg/mL
Solubility ([3]; methanol): 3000 µg/mL
Solubility ([3]; methyl ethyl ketone): <1000 µg/mL
Solubility ([3]; methyl tert-butyl ether): <1000 µg/mL
Solubility ([3]; nitromethane): <1000 µg/mL
Solubility ([3]; tetrahydrofuran): 1000 µg/mL
Solubility ([3]; toluene): <1000 µg/mL
Solubility ([3]; water): 2000 µg/mL

Tosylate
Chemical (%) ([2]; 40° C.): 99.18%
Chiral (%) ([2]; 40° C.): 98.52%
Physical stability ([2]; 40° C.): Stable
Chemical (%) ([2]; 40° C./80% RH): 98.84%
Chiral (%) ([2]; 40° C./80% RH): 98.48%
Physical stability ([2]; 40° C./80% RH): Stable
Chemical (%) ([2]; 60° C.): 99.01%
Chiral (%) ([2]; 60° C.): 98.46%
Physical stability ([2]; 60° C.): Stable
Chemical (%) ([2]; 60° C./75% RH): 96.76%
Chiral (%) ([2]; 60° C./75% RH): 98.10%
Physical stability ([2]; 60° C./75% RH): Stable
Chemical (%) ([2]; 70° C.): 98.58%
Chiral (%) ([2]; 70° C.): 98.43%
Physical stability ([2]; 70° C.): Stable
Chemical (%) ([2]; 70° C./80% RH): 95.73%
Chiral (%) ([2]; 70° C./80% RH): 97.64%
Physical stability ([2]; 70° C./80% RH): Stable
Chemical (%) ([2]; Ambient): 99.19%
Chiral (%) ([2]; Ambient): 98.49%
Solubility ([3]; 2-methyl tetrahydrofuran): <1000 µg/mL
Solubility ([3]; 2-propanol): <1000 µg/mL
Solubility ([3]; 95:5 2-PrOH/water): <1000 µg/mL
Solubility ([3]; 95:5 ACN/water): 17000 µg/mL
Solubility ([3]; 95:5 THF/water): 16000 µg/mL
Solubility ([3]; 95:5 acetone/water): 3000 µg/mL
Solubility ([3]; N-methyl pyrrolidone): 17000 µg/mL
Solubility ([3]; acetone): <1000 µg/mL
Solubility ([3]; acetonitrile): 1000 µg/mL
Solubility ([3]; anisole): <1000 µg/mL
Solubility ([3]; dichloromethane): 1000 µg/mL
Solubility ([3]; dimethylacetamide): 30000 µg/mL
Solubility ([3]; dimethylsulfoxide): 34000 µg/mL
Solubility ([3]; ethanol): <1000 µg/mL
Solubility ([3]; ethyl acetate): <1000 µg/mL
Solubility ([3]; ethyl formate): <1000 µg/mL
Solubility ([3]; isopropyl acetate): <1000 µg/mL
Solubility ([3]; methanol): 3000 µg/mL
Solubility ([3]; methyl ethyl ketone): <1000 µg/mL
Solubility ([3]; methyl tert-butyl ether): <1000 µg/mL
Solubility ([3]; nitromethane): 4000 µg/mL
Solubility ([3]; tetrahydrofuran): <1000 µg/mL
Solubility ([3]; toluene): <1000 µg/mL
Solubility ([3]; water): 2000 µg/mL
